Key:
[1] = system: Pfa1 Gpx4−/− overexpressing hFSP1 WT, hFSP1 F360L and mFSP1 WT; assay: Cell viability response to N-myristoyltransferase inhibitor IMP-1088; assay type: cell-based, murine
Protocol: (§1) Cell Lines. 4-hydroxytamoxifen (TAM)-inducible Gpx4^−/− murine immortalized fibroblasts (Pfa1) were reported previously. These cells harbor two loxP-flanked Gpx4 alleles and stably express TAM inducible Cre recombinase allowing the genetic deletion of Gpx4 at will. For all experiments using Gpx4^−/− the well were treated with 4-hydroxitamoxifen (TAM) 1 µM. All cells were cultured with were cultured in DMEM-high glucose (4.5 g glucose/L) with 10% fetal bovine serum (FBS), Glutamax, and 1% penicillin/streptomycin (Gibco, Thermo Fischer) at 37 °C with 5% CO2 and verified to be negative for mycoplasma.
(§2) Cell viability assays. Alamar Blue method: Cells were seeded on 96-well plates (2000 cells per well) and treated with the compounds RSL3, iFSP1 and (liproxstatin-1) after plating. Cell viability was assessed 48 h (unless stated otherwise) after treatment using Alamar Blue as an indicator of viable cells. Alamar blue solution was made by dissolving of 1 g resazurin sodium salt (Thermo Fischer) in 200 mL sterile PBS and sterile filtrated through a 0.22 µm filter. Stock solutions were stored at 4 °C. The working solution was made freshly by adding 200 µL of the stock solution to 25 mL growth media. After 2–4 h incubation time, viability was estimated by measuring the fluorescence using a 540/35 excitation filter and a 590/20 emission on a Spark® microplate reader (Tecan, Zürich, Switzerland).

[2] = system: Pfa1 Gpx4−/− cell line overexpressing hFSP1, mFSP1 and hFSP1 F360L mutants; assay: BODIPY 581/591 C11 oxidation (flow cytometry); assay type: cell-based, murine; details: iFSP1 3 µM for 3 h with Lip-1; all conditions
Protocol: In total, 150,000 cells per well were seeded on 6-well dishes one day prior to the experiment. […] Cells were incubated with C11-BODIPY (581/591) (1 μM) for 30 min at 37 °C before they were harvested by trypsinisation. Subsequently, cells were resuspended in 500 μL of fresh PBS (DPBS, Gibco) and analyzed using a 488-nm laser excitation laser and fluorescence recorded on a (FACS Canto II, BD Biosciences). Data was collected from the FL1 detector (C11-BODIPY, Invitrogen) with a 502LP and 530/30 BP filter. At least 20,000 events were analyzed per sample. Data was analyzed using FlowJo Software version 10.8.1.

[3] = system: Pfa1 Gpx4−/− cells overexpressing human FSP1 (hFSP1); assay: Cell viability (Alamar blue), dose-response toxicity in Gpx4-knockout cells expressing hFSP1; assay type: cell-based, murine; details: cells treated with iFSP1
Protocol: as §1, §2
Codon-optimized Mus musculus (mouse) FSP1 (NP_001034283.1) and Homo sapiens (Human) FSP1 (NP_001185625.1) were synthesized by IDT as gBlocks^TM and subcloned into p442-IRES-blast vectors. The chimera constructs were generated based on the pairwise alignment between the gene of Homo sapiens (Human) and the Mus musculus (Mouse), all the chimeric constructs contain the murine isoform with one region exchanged to the human isoform. […]

[4] = target: T1, hFSP1 WT (Homo sapiens, UniProt Q9BRQ8); assay: Competition MST against pre-formed complex of hFSP1 WT and FSP1-Tracer; assay type: binding; details: hFSP1 WT 5 µM and FSP1-Tracer 5 nM pre-formed complex
T1 construct: HisSUMO (cleaved yes); made in house; host or cells: E. coli BL21
T1 sequence (Q9BRQ8 1-373): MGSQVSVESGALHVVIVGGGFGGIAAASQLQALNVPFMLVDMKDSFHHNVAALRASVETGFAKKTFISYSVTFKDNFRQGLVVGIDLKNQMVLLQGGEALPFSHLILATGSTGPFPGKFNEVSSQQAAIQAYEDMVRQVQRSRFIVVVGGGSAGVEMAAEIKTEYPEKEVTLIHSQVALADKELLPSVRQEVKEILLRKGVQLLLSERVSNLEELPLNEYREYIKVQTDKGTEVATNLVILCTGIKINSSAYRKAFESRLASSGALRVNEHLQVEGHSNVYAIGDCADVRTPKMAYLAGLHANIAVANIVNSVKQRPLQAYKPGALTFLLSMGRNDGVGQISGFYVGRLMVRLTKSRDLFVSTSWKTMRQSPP
Protocol: FSP1 (human isoform 1, UniProt Q9BRQ8-1) WT (hFSP1 WT) and F360L (hFSP1 F360L) were expressed in E.coli BL21 as HisSUMO fusion protein. Cells were grown in lysogeny broth medium at 18 °C and induced with 0.5 mM isopropyl-β-thiogalactoside at a cell density A600 of 0.6. Cells were collected after overnight expression by centrifugation, resuspended in lysis buffer ([…], 50 mM Tris-HCl pH 8, 1 mM TCEP, 20 mM imidazole, protease inhibitor, DNase) and lysed by sonication. Cell debris was removed by centrifugation (30,000 × g) at 4 °C for 30 min, after which an IMAC purification was performed. Briefly, a HisTrap crude FF (5 mL) column was equilibrated to lysis buffer, lysates were loaded via the sample pump and the column was then washed with 50 mL lysis buffer. During the elution with a gradient to 100% IMAC elution buffer (300 mM NaCl, 50 mM Tris-HCl pH 8, 1 mM TCEP, 400 mM imidazole) over 100 mL, 5 mL fractions were collected. The pooled fractions were dialysed overnight in the presence of SenP2 SUMO protease at a ratio of 40:1 FSP1:SenP2. Afterwards, a reverse IMAC purification was performed on a HisTrap crude FF (5 mL) column. IMAC eluates were analysed by SDS PAGE and concentrated to 15 mL (hFSP1 WT) and 5 mL (hFSP1 F360L), respectively. […] Pure fractions were pooled (C12—D11 for hFSP1 WT and C7—D4 for hFSP1 F360L), analysed by SDS-PAGE (Supplementary Fig. 4) and concentrated to 5.8 mL at 285.9 µM (hFSP1 WT) and 1.2 mL at 269.5 µM (FSP1 F360L), flash frozen in liquid N2 and stored at −80 °C.
An MST buffer consisting of 1× phosphate-buffered saline (PBS; 137 mM NaCl, 2.7 mM KCl, 10 mM Na2HPO4, 1.8 mM KH2PO4, pH 7.4) with 2 mM reduced L-Glutathione (GSH, Sigma Aldrich, product number G4251) and 0.05% (v/v) Tween 20 (ITW Reagents, molecular biology grade, product number A4974) was used for all MST measurements. […] KD values were determined by applying a Hill-fit to a plot of Fnorm vs. hFSP1 WT/F360L concentration. […]

[5] = system: Pfa1 cells overexpressing the mock, hFSP1 WT, hFSP1 F360L and mFSP1 WT; assay: Cell viability response to GPX4 inhibitor RSL3; assay type: cell-based, murine; details: Alamar blue viability
Protocol: as §1, §2

With `Cc1nn(C)c(C)c1CCOc1c(-c2ccc3c(c2)c(CN(C)C)nn3C)ccc(F)c1F` [IMP-1088] the “ferroptosis induction across FSP1 variants” value [1] was “all mutants undergo ferroptosis similarly”.

In the case of `Clc1cccc(CN=C2Nc3ccccc3NC23CCNCC3)c1` [Lip-1, liproxstatin-1], the “rescue of the iFSP1-induced increase in BODIPY-C11 signal” value [2] is reported as “could be rescued” and the “rescue from iFSP1-induced ferroptosis” value [3] is reported as “rescuing the cells”.

`NC(=O)C1=CN(C2OC(COP(=O)(O)OP(=O)(O)OCC3OC(n4cnc5c(N)ncnc54)C(O)C3O)C(O)C2O)C=CC1` (centres unmarked) [NADH] was tested, and the Ki [4] was 455 nM.

`COC(=O)c1ccc([C@@H]2c3[nH]c4ccccc4c3C[C@@H](C(=O)OC)N2C(=O)CCl)cc1` [RSL3, (1 S,3 R)-RSL3] was tested, and the “difference in response to the GPX4 inhibitor between cells overexpressing the FSP1 variants” value [5] was “no difference in response”.
